Converted amounts (≈) assume the structure as drawn.
Tests used:
IGROV-1 = assay: Growth inhibition of human IGROV-1 cells at 10 uM relative to control; type: functional; conditions: read-out: GI
SN12C = assay: Growth inhibition of human SN12C cells at 10 uM relative to control; type: functional; conditions: read-out: GI
U-251 = assay: Growth inhibition of human U-251 cells at 10 uM relative to control; type: functional; conditions: read-out: GI
M14 = assay: Growth inhibition of human M14 cells at 10 uM relative to control; type: functional; conditions: read-out: GI
RPMI-8226 = assay: Growth inhibition of human RPMI-8226 cells at 10 uM relative to control; type: functional; conditions: read-out: GI
SK-MEL-28 = assay: Growth inhibition of human SK-MEL-28 cells at 10 uM relative to control; type: functional; conditions: read-out: GI
HL-60(TB) = assay: Growth inhibition of human HL-60(TB) cells at 10 uM relative to control; type: functional; conditions: read-out: GI
UO-31 = assay: Growth inhibition of human UO-31 cells at 10 uM relative to control; type: functional; conditions: read-out: GI
Malme-3M = assay: Growth inhibition of human Malme-3M cells at 10 uM relative to control; type: functional; conditions: read-out: GI
SNB-75 = assay: Growth inhibition of human SNB-75 cells at 10 uM relative to control; type: functional; conditions: read-out: GI
NCI-H226 = assay: Growth inhibition of human NCI-H226 cells at 10 uM relative to control; type: functional; conditions: read-out: GI
A549 = assay: Growth inhibition of human A549 cells at 10 uM relative to control; type: functional; conditions: read-out: GI
NCI-H522 = assay: Growth inhibition of human NCI-H522 cells at 10 uM relative to control; type: functional; conditions: read-out: GI
HCT-116 = assay: Growth inhibition of human HCT-116 cells at 10 uM relative to control; type: functional; conditions: read-out: GI
LOX IMVI = assay: Growth inhibition of human LOX IMVI cells at 10 uM relative to control; type: functional; conditions: read-out: GI
HOP-92 = assay: Growth inhibition of human HOP-92 cells at 10 uM relative to control; type: functional; conditions: read-out: GI
SF-295 = assay: Growth inhibition of human SF-295 cells at 10 uM relative to control; type: functional; conditions: read-out: GI
ACHN = assay: Growth inhibition of human ACHN cells at 10 uM relative to control; type: functional; conditions: read-out: GI
CCRF-CEM = assay: Growth inhibition of human CCRF-CEM cells at 10 uM relative to control; type: functional; conditions: read-out: GI
PC-3 = assay: Growth inhibition of human PC-3 cells at 10 uM relative to control; type: functional; conditions: read-out: GI
K562 = assay: Growth inhibition of human K562 cells at 10 uM relative to control; type: functional; conditions: read-out: GI
SR = assay: Growth inhibition of human SR cells at 10 uM relative to control; type: functional; conditions: read-out: GI
HCT-15 = assay: Growth inhibition of human HCT-15 cells at 10 uM relative to control; type: functional; conditions: read-out: GI
NCI-H23 = assay: Growth inhibition of human NCI-H23 cells at 10 uM relative to control; type: functional; conditions: read-out: GI
COLO 205 = assay: Growth inhibition of human COLO 205 cells at 10 uM relative to control; type: functional; conditions: read-out: GI
SK-OV-3 = assay: Growth inhibition of human SK-OV-3 cells at 10 uM relative to control; type: functional; conditions: read-out: GI
DNA = assay: Displacement of methyl green from DNA (unknown origin) assessed as DNA intercalation after 24 hrs by colorimetric assay; type: nucleic-acid assay
HOP-62 = assay: Growth inhibition of human HOP-62 cells at 10 uM relative to control; type: functional; conditions: read-out: GI
OVCAR-5 = assay: Growth inhibition of human OVCAR-5 cells at 10 uM relative to control; type: functional; conditions: read-out: GI
NCI-H460 = assay: Growth inhibition of human NCI-H460 cells at 10 uM relative to control; type: functional; conditions: read-out: GI
Hs-578T = assay: Growth inhibition of human Hs-578T cells at 10 uM relative to control; type: functional; conditions: read-out: GI
MDA-MB-468 = assay: Growth inhibition of human MDA-MB-468 cells at 10 uM relative to control; type: functional; conditions: read-out: GI
DU-145 = assay: Growth inhibition of human DU-145 cells at 10 uM relative to control; type: functional; conditions: read-out: GI
NCI/ADR-RES = assay: Growth inhibition of human NCI/ADR-RES cells at 10 uM relative to control; type: functional; conditions: read-out: GI
786-0 = assay: Growth inhibition of human 786-0 cells at 10 uM relative to control; type: functional; conditions: read-out: GI
SK-MEL-5 = assay: Growth inhibition of human SK-MEL-5 cells at 10 uM relative to control; type: functional; conditions: read-out: GI
SW-620 = assay: Growth inhibition of human SW-620 cells at 10 uM relative to control; type: functional; conditions: read-out: GI
NCI-H322M = assay: Growth inhibition of human NCI-H322M cells at 10 uM relative to control; type: functional; conditions: read-out: GI
UACC-257 = assay: Growth inhibition of human UACC-257 cells at 10 uM relative to control; type: functional; conditions: read-out: GI
KM12 = assay: Growth inhibition of human KM12 cells at 10 uM relative to control; type: functional; conditions: read-out: GI
CAKI-1 = assay: Growth inhibition of human CAKI-1 cells at 10 uM relative to control; type: functional; conditions: read-out: GI
MCF7 = assay: Growth inhibition of human MCF7 cells at 10 uM relative to control; type: functional; conditions: read-out: GI
OVCAR-4 = assay: Growth inhibition of human OVCAR-4 cells at 10 uM relative to control; type: functional; conditions: read-out: GI
SK-MEL-2 = assay: Growth inhibition of human SK-MEL-2 cells at 10 uM relative to control; type: functional; conditions: read-out: GI
A498 = assay: Growth inhibition of human A498 cells at 10 uM relative to control; type: functional; conditions: read-out: GI
TK-10 = assay: Growth inhibition of human TK-10 cells at 10 uM relative to control; type: functional; conditions: read-out: GI
SNB-19 = assay: Growth inhibition of human SNB-19 cells at 10 uM relative to control; type: functional; conditions: read-out: GI
BT-549 = assay: Growth inhibition of human BT-549 cells at 10 uM relative to control; type: functional; conditions: read-out: GI
RXF 393 = assay: Growth inhibition of human RXF 393 cells at 10 uM relative to control; type: functional; conditions: read-out: GI
OVCAR-8 = assay: Growth inhibition of human OVCAR-8 cells at 10 uM relative to control; type: functional; conditions: read-out: GI
HCC 2998 = assay: Growth inhibition of human HCC 2998 cells at 10 uM relative to control; type: functional; conditions: read-out: GI
UACC-62 = assay: Growth inhibition of human UACC-62 cells at 10 uM relative to control; type: functional; conditions: read-out: GI
MOLT-4 = assay: Growth inhibition of human MOLT-4 cells at 10 uM relative to control; type: functional; conditions: read-out: GI
T47D = assay: Growth inhibition of human T47D cells at 10 uM relative to control; type: functional; conditions: read-out: GI
MDA-MB-435 = assay: Growth inhibition of human MDA-MB-435 cells at 10 uM relative to control; type: functional; conditions: read-out: GI
SF-539 = assay: Growth inhibition of human SF-539 cells at 10 uM relative to control; type: functional; conditions: read-out: GI
MDA-MB-231 = assay: Growth inhibition of human MDA-MB-231 cells at 10 uM relative to control; type: functional; conditions: read-out: GI
HT-29 = assay: Growth inhibition of human HT-29 cells at 10 uM relative to control; type: functional; conditions: read-out: GI
SF-268 = assay: Growth inhibition of human SF-268 cells at 10 uM relative to control; type: functional; conditions: read-out: GI

Compound `CC1=CSC2=NC(/C=C/c3cccs3)=CC(c3cccs3)N12` (centres undefined) has an inhibition of growth at 10 µM (IGROV-1) of less than 10%, an inhibition of growth at 10 µM (SN12C) of less than 10% and an inhibition of growth at 10 µM (U-251) of less than 10%. It also gave an inhibition of growth at 10 µM (M14) of less than 10%, an inhibition of growth at 10 µM (RPMI-8226) of less than 10% and an inhibition of growth at 10 µM (SK-MEL-28) of less than 10%. For the same compound, the inhibition of growth at 10 µM (HL-60(TB)) was less than 10%, the inhibition of growth at 10 µM (UO-31) was less than 10% and the inhibition of growth at 10 µM (Malme-3M) was less than 10%. For the same compound, the inhibition of growth at 10 µM (SNB-75) was less than 10%, the inhibition of growth at 10 µM (NCI-H226) was less than 10% and the inhibition of growth at 10 µM (A549) was less than 10%. The inhibition of growth at 10 µM (NCI-H522) was 13.3%, the inhibition of growth at 10 µM (HCT-116) was less than 10% and the inhibition of growth at 10 µM (LOX IMVI) was less than 10%. The inhibition of growth at 10 µM (HOP-92) was less than 10%, the inhibition of growth at 10 µM (SF-295) was less than 10% and the inhibition of growth at 10 µM (ACHN) was less than 10%. For the same compound, the inhibition of growth at 10 µM (CCRF-CEM) was less than 10%, the inhibition of growth at 10 µM (PC-3) was less than 10% and the inhibition of growth at 10 µM (K562) was less than 10%. The inhibition of growth at 10 µM (SR) was less than 10%, the inhibition of growth at 10 µM (HCT-15) was less than 10% and the inhibition of growth at 10 µM (NCI-H23) was less than 10%. It also gave an inhibition of growth at 10 µM (COLO 205) of less than 10%, an inhibition of growth at 10 µM (SK-OV-3) of less than 10% and an IC50 (DNA) of 39.82 µg/mL (≈ 116 µM). The inhibition of growth at 10 µM (HOP-62) was less than 10%, the inhibition of growth at 10 µM (OVCAR-5) was less than 10% and the inhibition of growth at 10 µM (NCI-H460) was less than 10%. For the same compound, the inhibition of growth at 10 µM (Hs-578T) was less than 10%, the inhibition of growth at 10 µM (MDA-MB-468) was less than 10% and the inhibition of growth at 10 µM (DU-145) was less than 10%. For the same compound, the inhibition of growth at 10 µM (NCI/ADR-RES) was less than 10%, the inhibition of growth at 10 µM (786-0) was less than 10% and the inhibition of growth at 10 µM (SK-MEL-5) was less than 10%. It also gave an inhibition of growth at 10 µM (SW-620) of less than 10%, an inhibition of growth at 10 µM (NCI-H322M) of less than 10% and an inhibition of growth at 10 µM (UACC-257) of less than 10%. For the same compound, the inhibition of growth at 10 µM (KM12) was less than 10%, the inhibition of growth at 10 µM (CAKI-1) was less than 10% and the inhibition of growth at 10 µM (MCF7) was less than 10%. For the same compound, the inhibition of growth at 10 µM (OVCAR-4) was less than 10%, the inhibition of growth at 10 µM (SK-MEL-2) was less than 10% and the inhibition of growth at 10 µM (A498) was less than 10%. The inhibition of growth at 10 µM (TK-10) was less than 10%, the inhibition of growth at 10 µM (SNB-19) was less than 10% and the inhibition of growth at 10 µM (BT-549) was less than 10%. The inhibition of growth at 10 µM (RXF 393) was less than 10%, the inhibition of growth at 10 µM (OVCAR-8) was less than 10% and the inhibition of growth at 10 µM (HCC 2998) was less than 10%. The inhibition of growth at 10 µM (UACC-62) was less than 10%, the inhibition of growth at 10 µM (MOLT-4) was less than 10% and the inhibition of growth at 10 µM (T47D) was less than 10%. For the same compound, the inhibition of growth at 10 µM (MDA-MB-435) was less than 10%, the inhibition of growth at 10 µM (SF-539) was less than 10% and the inhibition of growth at 10 µM (MDA-MB-231) was less than 10%. It also gave an inhibition of growth at 10 µM (HT-29) of less than 10% and an inhibition of growth at 10 µM (SF-268) of less than 10%.

From ChEMBL document CHEMBL4665869, “New thiazolopyrimidine as anticancer agents: Synthesis, biological evaluation, DNA binding, molecular modeling and ADMET study” (Bioorg Med Chem Lett, 2020)
